Results published in paper PMC6519835, “A family AA5_2 carbohydrate oxidase from Penicillium rubens displays functional overlap across the AA5 family” (PLoS ONE, 2019).

Tests used:
[1] = biological target: T1, FgrGaOx (galactose oxidase) (Fusarium graminearum, UniProt P0CS93); format: biochemical
T1 construct: gene GAOA

PruAA5_2A [2] = biological target: T2, PruAA5_2A (Penicillium rubens, UniProt B6HHT0); assay: purified enzyme specific activity and kinetics (HRP/ABTS assay); format: biochemical
T2 construct: gene Pc21g18600; recombinant from P. pastoris
T2 sequence (B6HHT0 22-657): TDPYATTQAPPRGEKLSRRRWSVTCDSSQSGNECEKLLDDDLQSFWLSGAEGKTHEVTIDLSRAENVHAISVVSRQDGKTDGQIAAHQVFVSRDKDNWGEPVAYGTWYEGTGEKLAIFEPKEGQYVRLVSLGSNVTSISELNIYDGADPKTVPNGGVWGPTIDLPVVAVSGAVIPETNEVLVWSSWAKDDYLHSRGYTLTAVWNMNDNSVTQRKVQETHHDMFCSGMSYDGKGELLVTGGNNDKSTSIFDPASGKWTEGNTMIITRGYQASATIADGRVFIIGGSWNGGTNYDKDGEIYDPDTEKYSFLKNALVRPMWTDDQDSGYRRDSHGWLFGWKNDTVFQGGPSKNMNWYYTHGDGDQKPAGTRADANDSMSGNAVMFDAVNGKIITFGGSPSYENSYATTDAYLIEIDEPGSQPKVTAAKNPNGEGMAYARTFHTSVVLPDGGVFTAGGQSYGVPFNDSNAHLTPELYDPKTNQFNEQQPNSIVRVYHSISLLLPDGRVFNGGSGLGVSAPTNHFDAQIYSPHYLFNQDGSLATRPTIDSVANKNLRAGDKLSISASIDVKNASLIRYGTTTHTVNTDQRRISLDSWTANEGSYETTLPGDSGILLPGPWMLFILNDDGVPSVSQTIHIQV

PruAA5_2A [3] = biological target: T2, PruAA5_2A; assay: purified enzyme specific activity at […] (HRP/ABTS assay); format: biochemical
[4] = biological target: T1, FgrGaOx (galactose oxidase); format: biochemical; remark: listed apart in the source
PruAA5_2A [5] = biological target: T2, PruAA5_2A; assay: purified enzyme kinetics (HRP/ABTS assay) and MS of the C-6 oxidized product; […] U/mg at […]; format: biochemical
purified protein = substrate: OC1COC(O)CO1; assay: purified protein; format: biochemical, Penicillium rubens; conditions: copper; Tyr-Cys radical cofactor

T1 sequence (P0CS93 42-680 limits assumed): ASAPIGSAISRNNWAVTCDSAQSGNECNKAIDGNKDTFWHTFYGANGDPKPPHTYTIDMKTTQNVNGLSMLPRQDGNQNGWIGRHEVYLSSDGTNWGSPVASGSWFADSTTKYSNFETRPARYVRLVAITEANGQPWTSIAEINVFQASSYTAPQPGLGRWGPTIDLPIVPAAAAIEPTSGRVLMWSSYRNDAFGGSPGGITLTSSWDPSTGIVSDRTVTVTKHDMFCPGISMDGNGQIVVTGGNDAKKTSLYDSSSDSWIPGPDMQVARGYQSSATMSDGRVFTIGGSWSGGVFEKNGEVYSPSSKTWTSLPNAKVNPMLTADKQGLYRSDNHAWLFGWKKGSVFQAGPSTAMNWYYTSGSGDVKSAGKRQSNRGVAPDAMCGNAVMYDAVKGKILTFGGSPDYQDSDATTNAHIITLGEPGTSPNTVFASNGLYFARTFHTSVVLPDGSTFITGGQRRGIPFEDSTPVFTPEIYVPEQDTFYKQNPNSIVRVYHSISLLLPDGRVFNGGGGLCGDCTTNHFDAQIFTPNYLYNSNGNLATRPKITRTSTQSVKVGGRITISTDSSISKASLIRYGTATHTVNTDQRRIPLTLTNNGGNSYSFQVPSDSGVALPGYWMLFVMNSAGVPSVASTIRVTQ

OC[C@H]1OC(O)[C@H](O)[C@@H](O)[C@H]1O (stereo partly shown) [galactose]
purified enzyme kinetics (HRP/ABTS assay), kcat/KM 20 s^-1*mM^-1 [1]: 20000 M⁻¹ s⁻¹

OCC(O)CO [glycerol]
purified enzyme specific activity and kinetics (HRP/ABTS assay) (PruAA5_2A [2]): 22.5 U/mg

OC[C@H]1O[C@H](OC[C@H]2OC(O)[C@H](O)[C@@H](O)[C@@H]2O)[C@H](O)[C@@H](O)[C@H]1O (stereo partly shown) [melibiose]
purified enzyme specific activity at 300 mM (HRP/ABTS assay) (PruAA5_2A [3]): 17.5 U/mg

OC[C@H]1O[C@H](OC[C@H]2O[C@H](O[C@]3(CO)O[C@H](CO)[C@@H](O)[C@@H]3O)[C@H](O)[C@@H](O)[C@@H]2O)[C@H](O)[C@@H](O)[C@H]1O [raffinose]
purified enzyme kinetics (HRP/ABTS assay), kcat/KM 30 s^-1*mM^-1 [4]: 30000 M⁻¹ s⁻¹ | purified enzyme kinetics (HRP/ABTS assay) and MS of the C-6 oxidized product; 31 (PruAA5_2A [5]): 31.4 U/mg

OC[C@H]1O[C@H](OC[C@H]2O[C@H](OC[C@H]3O[C@H](O[C@]4(CO)O[C@H](CO)[C@@H](O)[C@@H]4O)[C@H](O)[C@@H](O)[C@@H]3O)[C@H](O)[C@@H](O)[C@H]2O)[C@H](O)[C@@H](O)[C@H]1O [stachyose]
purified enzyme specific activity at 300 mM (HRP/ABTS assay) (PruAA5_2A [3]): 9.4 U/mg

B1: PruAA5_2A (Penicillium rubens Wisconsin 54-1255) (protein)
chain: T2 sequence (B6HHT0 22-657)
notes: recombinant from P. pastoris
Km (purified protein): 53 mM
